Read-outs that look alike come from different tables or passages of the source. Where a SMILES comes first, the peptide text is derived from it. Bridges are numbered along the chain shown (N, C = ends). [ ]: non-standard residue; d: D form. Pro(4S-NH2) = N[C@@H]1CN[C@H](C(=O)O)C1; hSer = N[C@@H](CCO)C(=O)O

For one assay, the target named is IgG. Put plainly: Affinity to IgG by surface plasmon resonance (SPR). The format is binding. The method, then:
Immobilization levels ranging from 1000-1300 resonance units (RU) are obtained. The running buffer is 10 mM HEPES, pH 7.4, 400 mM NaCl, 0.005% P20, […].

For a further assay, the target named is T1, ASGPR (Homo sapiens, UniProt P07306).
T1 sequence (P07306 1-291): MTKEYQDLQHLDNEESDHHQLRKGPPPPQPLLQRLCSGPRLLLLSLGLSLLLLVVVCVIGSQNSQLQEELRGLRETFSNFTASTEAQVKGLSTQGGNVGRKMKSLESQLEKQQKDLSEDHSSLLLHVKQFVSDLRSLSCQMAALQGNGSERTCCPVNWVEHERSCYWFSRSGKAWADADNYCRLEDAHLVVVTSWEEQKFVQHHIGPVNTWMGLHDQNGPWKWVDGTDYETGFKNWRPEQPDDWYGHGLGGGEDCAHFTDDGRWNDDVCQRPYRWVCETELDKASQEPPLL
Put plainly: Affinity to ASGPR by surface plasmon resonance (SPR). A general note: In SPR one partner is held on a chip, and binding of the other changes the refractive index at the surface.

Setting [1] is: Biacore 8K, 25° C., IgG on CM5 chip, read-out: IgG SPR Binding Kd.

By Kd is commonly meant the free concentration of one partner at which half of the binding sites on the other are occupied at equilibrium, for simple one-to-one binding. Regarding `CC(C)C[C@@H]1NC(=O)[C@H](Cc2cnc[nH]2)NC(=O)[C@H](Cc2c[nH]c3ccccc23)NC(=O)[C@H](C)NC(=O)[C@@H]2CSSC[C@H](NC(=O)[C@H](Cc3c[nH]c4ccccc34)NC(=O)[C@H](C(C)C)NC(=O)[C@H](CC(C)C)NC(=O)[C@H](CCC(=O)O)NC(=O)CNC1=O)C(=O)N[C@@H]([C@@H](C)O)C(=O)N1CCC[C@@H]1C(=O)N1C[C@@H](N)C[C@H]1C(=O)N[C@@H](CC(=O)O)C(=O)N2` [Intermediate 5], on IgG (setting [1]), the Kd was below 100 nM.

For `CC(C)C[C@@H]1NC(=O)[C@H](Cc2cnc[nH]2)NC(=O)[C@H](Cc2c[nH]c3ccccc23)NC(=O)[C@H](C)NC(=O)[C@@H]2CSSC[C@H](NC(=O)[C@H](Cc3c[nH]c4cc(Cl)ccc34)NC(=O)[C@H](C(C)C)NC(=O)[C@H](CC(C)C)NC(=O)[C@H](CCC(=O)O)NC(=O)CNC1=O)C(=O)N[C@@H]([C@@H](C)O)C(=O)N1CCC[C@@H]1C(=O)N1C[C@@H](N)C[C@H]1C(=O)N[C@@H](CC(=O)O)C(=O)N2` [Intermediate 19], the Kd at IgG (setting [1]) was below 100 nM; at IgG (SPR, read-out: IgG KD) it was below 100 nM.

For `CC(C)C[C@@H]1NC(=O)[C@H](Cc2cnc[nH]2)NC(=O)[C@H](Cc2c[nH]c3ccccc23)NC(=O)[C@H](C)NC(=O)[C@@H]2CSSC[C@H](NC(=O)[C@H](Cc3c[nH]c4ccccc34)NC(=O)[C@H](C(C)C)NC(=O)[C@H](CC(C)C)NC(=O)[C@H](CCC(=O)O)NC(=O)CNC1=O)C(=O)N[C@@H]([C@@H](C)O)C(=O)N1CCC[C@@H]1C(=O)N1C[C@@H](N)C[C@H]1C(=O)N[C@@H](C)C(=O)N2` [Intermediate 12], the Kd on IgG (setting [1]) was below 100 nM; at IgG (SPR, read-out: IgG KD), below 100 nM.

With `C#CCCCC(=O)N[C@H]1C[C@H]2C(=O)N[C@@H](CC(=O)O)C(=O)N[C@H]3CSSC[C@H](NC(=O)[C@H](Cc4c[nH]c5ccccc45)NC(=O)[C@H](C(C)C)NC(=O)[C@H](CC(C)C)NC(=O)[C@H](CCC(=O)O)NC(=O)CNC(=O)[C@H](CC(C)C)NC(=O)[C@H](Cc4cnc[nH]4)NC(=O)[C@H](Cc4c[nH]c5ccccc45)NC(=O)[C@H](C)NC3=O)C(=O)N[C@@H]([C@@H](C)O)C(=O)N3CCC[C@@H]3C(=O)N2C1` [Intermediate 8], at IgG (SPR, read-out: IgG KD), the Kd was below 100 nM.

Turning to `CC(C)C[C@@H]1NC(=O)[C@H](Cc2cnc[nH]2)NC(=O)[C@H](Cc2c[nH]c3ccccc23)NC(=O)[C@H](C)NC(=O)[C@@H]2CSSC[C@H](NC(=O)[C@H](Cc3c[nH]c4ccccc34)NC(=O)[C@H](C(C)C)NC(=O)[C@H](CC(C)C)NC(=O)[C@H](CCC(=O)O)NC(=O)CNC1=O)C(=O)N[C@@H]([C@@H](C)O)C(=O)N1CCC[C@@H]1C(=O)N1C[C@@H](NC(=O)CCCc3cn(C[C@H]4OC[C@H](Nc5nccc(C(F)(F)F)n5)[C@@H](O)[C@H]4O)nn3)C[C@H]1C(=O)N[C@@H](CC(=O)O)C(=O)N2` [Compound 80], the Kd was below 100 nM on IgG (SPR, read-out: IgG KD) and above 1000 nM on ASGPR.

Regarding `C#CCCCC(=O)NCCOCCOCCOCCOCCN[C@@H](CC(=O)O)C(=O)N[C@H]1CSSC[C@@H](C(=O)N[C@H](C(N)=O)[C@@H](C)O)NC(=O)[C@H](Cc2c[nH]c3ccccc23)NC(=O)[C@H](C(C)C)NC(=O)[C@H](CC(C)C)NC(=O)[C@H](CCC(=O)O)NC(=O)CNC(=O)[C@H](CC(C)C)NC(=O)[C@H](Cc2cnc[nH]2)NC(=O)[C@H](Cc2c[nH]c3ccccc23)NC(=O)[C@H](C)NC1=O` [Intermediate 3], the Kd at IgG (setting [1]) was below 100 nM.

Turning to `C#CCCCC(=O)NCCOCCOCCOCCOCCC(=O)N[C@H]1C[C@H]2C(=O)N[C@@H](CC(=O)O)C(=O)N[C@H]3CSSC[C@H](NC(=O)[C@H](Cc4c[nH]c5ccccc45)NC(=O)[C@H](C(C)C)NC(=O)[C@H](CC(C)C)NC(=O)[C@H](CCC(=O)O)NC(=O)CNC(=O)[C@H](CC(C)C)NC(=O)[C@H](Cc4cnc[nH]4)NC(=O)[C@H](Cc4c[nH]c5ccccc45)NC(=O)[C@H](C)NC3=O)C(=O)N[C@@H]([C@@H](C)O)C(=O)N3CCC[C@@H]3C(=O)N2C1` [Intermediate 4], the Kd on IgG (setting [1]) is below 100 nM; at IgG (SPR, read-out: IgG KD) it was below 100 nM.

In the case of `CC(C)C[C@@H]1NC(=O)[C@H](Cc2cnc[nH]2)NC(=O)[C@H](Cc2c[nH]c3ccccc23)NC(=O)[C@H](C)NC(=O)[C@@H]2CC/C=C/C[C@H](NC(=O)[C@H](Cc3c[nH]c4ccccc34)NC(=O)[C@H](C(C)C)NC(=O)[C@H](CC(C)C)NC(=O)[C@H](CCC(=O)O)NC(=O)CNC1=O)C(=O)N[C@@H]([C@@H](C)O)C(=O)N1CCC[C@@H]1C(=O)N1CCC[C@H]1C(=O)N[C@@H](CC(=O)O)C(=O)N2`, on IgG (SPR, read-out: IgG KD), the Kd is below 100 nM.

For the molecule `CC(C)C[C@@H]1NC(=O)[C@H](Cc2cnc[nH]2)NC(=O)[C@H](Cc2c[nH]c3ccccc23)NC(=O)[C@H](C)NC(=O)[C@@H]2CSSC[C@H](NC(=O)[C@H](Cc3c[nH]c4ccccc34)NC(=O)[C@H](C(C)C)NC(=O)[C@H](CC(C)C)NC(=O)[C@H](CCC(=O)O)NC(=O)CNC1=O)C(=O)N[C@@H]([C@@H](C)O)C(=O)N1CCC[C@@H]1C(=O)N1C[C@@H](N)C[C@H]1C(=O)N[C@@H](CC(N)=O)C(=O)N2` [Intermediate 13] (cyclo(AWHLGELVWCT[dP][Pro(4S-NH2)]NC); disulfide 10-15), the dissociation constant Kd on IgG (setting [1]) is below 100 nM; on IgG (SPR, read-out: IgG KD), below 100 nM.

Regarding `CC(C)C[C@@H]1NC(=O)[C@H](C)NC(=O)CNC(=O)[C@H](CC(C)C)NC(=O)[C@H](Cc2cnc[nH]2)NC(=O)[C@H](Cc2c[nH]c3ccccc23)NC(=O)[C@H](C)NC(=O)[C@@H]2CSSC[C@H](NC(=O)[C@H](Cc3c[nH]c4ccccc34)NC(=O)[C@H](C(C)C)NC1=O)C(=O)N[C@@H]([C@@H](C)O)C(=O)N1CCC[C@@H]1C(=O)N1C[C@@H](N)C[C@H]1C(=O)N[C@@H](CC(=O)O)C(=O)N2` [Intermediate 17] (cyclo(ALVWCT[dP][Pro(4S-NH2)]DCAWHLG); disulfide 5-10), the Kd at IgG (setting [1]) is below 100 nM; at IgG (SPR, read-out: IgG KD) it was below 100 nM.

Turning to `C#CCCCC(=O)NCCOCCOCCOCCOCCC(=O)N[C@@H](CC(=O)O)C(=O)N[C@H]1CSSC[C@@H](C(=O)N[C@H](C(N)=O)[C@@H](C)O)NC(=O)[C@H](Cc2c[nH]c3ccccc23)NC(=O)[C@H](C(C)C)NC(=O)[C@H](CC(C)C)NC(=O)[C@H](CCC(=O)O)NC(=O)CNC(=O)[C@H](CC(C)C)NC(=O)[C@H](Cc2cnc[nH]2)NC(=O)[C@H](Cc2c[nH]c3ccccc23)NC(=O)[C@H](C)NC1=O` [Intermediate 1], the Kd was below 100 nM on IgG (setting [1]) and below 100 nM at IgG (SPR, read-out: IgG KD).

With `C#CCCCC(=O)NCCOCCC(=O)N[C@H]1C[C@H]2C(=O)N[C@@H](CC(=O)O)C(=O)N[C@H]3CSSC[C@H](NC(=O)[C@H](Cc4c[nH]c5ccccc45)NC(=O)[C@H](C(C)C)NC(=O)[C@H](CC(C)C)NC(=O)[C@H](CCC(=O)O)NC(=O)CNC(=O)[C@H](CC(C)C)NC(=O)[C@H](Cc4cnc[nH]4)NC(=O)[C@H](Cc4c[nH]c5ccccc45)NC(=O)[C@H](C)NC3=O)C(=O)N[C@@H]([C@@H](C)O)C(=O)N3CCC[C@@H]3C(=O)N2C1` [Intermediate 7], the Kd at IgG (setting [1]) was below 100 nM.

In the case of `CC(C)C[C@@H]1NC(=O)[C@H](Cc2cnc[nH]2)NC(=O)[C@H](Cc2c[nH]c3ccccc23)NC(=O)[C@H](CCO)NC(=O)[C@@H]2CSSC[C@H](NC(=O)[C@H](Cc3c[nH]c4ccccc34)NC(=O)[C@H](C(C)C)NC(=O)[C@H](CC(C)C)NC(=O)[C@H](CCC(=O)O)NC(=O)CNC1=O)C(=O)N[C@@H]([C@@H](C)O)C(=O)N1CCC[C@@H]1C(=O)N1C[C@@H](N)C[C@H]1C(=O)N[C@@H](CC(=O)O)C(=O)N2` [Intermediate 21] (cyclo(CT[dP][Pro(4S-NH2)]DC[hSer]WHLGELVW); disulfide 1-6), the Kd on IgG (setting [1]) was below 100 nM; at IgG (SPR, read-out: IgG KD), below 100 nM.

As for `C#CCCCC(=O)NCCOCCOCCOCCC(=O)N[C@H]1C[C@H]2C(=O)N[C@@H](CC(=O)O)C(=O)N[C@H]3CSSC[C@H](NC(=O)[C@H](Cc4c[nH]c5ccccc45)NC(=O)[C@H](C(C)C)NC(=O)[C@H](CC(C)C)NC(=O)[C@H](CCC(=O)O)NC(=O)CNC(=O)[C@H](CC(C)C)NC(=O)[C@H](Cc4cnc[nH]4)NC(=O)[C@H](Cc4c[nH]c5ccccc45)NC(=O)[C@H](C)NC3=O)C(=O)N[C@@H]([C@@H](C)O)C(=O)N3CCC[C@@H]3C(=O)N2C1` [Intermediate 9], the Kd on IgG (setting [1]) was below 100 nM.

`CC(C)C[C@@H]1NC(=O)[C@H](Cc2cnc[nH]2)NC(=O)[C@H](Cc2c[nH]c3ccccc23)NC(=O)[C@H](C)NC(=O)[C@@H]2CSSC[C@H](NC(=O)[C@@H](Cc3c[nH]c4ccccc34)NC(=O)[C@H](C(C)C)NC(=O)[C@H](CC(C)C)NC(=O)[C@H](CCC(=O)O)NC(=O)CNC1=O)C(=O)N[C@@H]([C@@H](C)O)C(=O)N1CCC[C@@H]1C(=O)N1C[C@@H](N)C[C@H]1C(=O)N[C@@H](CC(=O)O)C(=O)N2` (stereo in doubt) [Intermediate 24]: the Kd at IgG (setting [1]) was below 100 nM; on IgG (SPR, read-out: IgG KD) it was below 100 nM.

(Values after patent US12091402B2 (Avilar Therapeutics, Inc., priority 2021, dated 2024).)
